Measured values: ChEMBL document CHEMBL6078688, “Discovery of Novel MyD88 Inhibitor A5S to Alleviate Acute Lung Injury with Favorable Drug-like Properties” (J Med Chem, 2024)
Calls of active or inactive are those of the source. No cut-off for these calls is given here.

Key:
[1] = Oral bioavailability in Sprague-Dawley rat at 20 mg/kg administration measured upto 24 hrs by LC-MS/MS analysis; type: ADME, organism-based; conditions: in vivo
Mus musculus [2] = assay: Antiinflammatory activity against LPS induced acute lung injury C57BL/6 mouse model assessed as reduction in histopathological change in lung at 20 mg/kg,po administrated with compound for 30 mins followed by LPS treatment and measured after 6 hrs by H and E staining based analysis; type: functional, organism-based; conditions: time 6.5 hrs
[3] = Drug concentration in Sprague-Dawley rat lung at 20 mg/kg,po administration measured upto 8 hrs by LC-MS/MS analysis; type: ADME, organism-based; conditions: in vivo
Peritoneal macrophage = assay: Antiinflammatory activity in LPS-induced mouse Peritoneal macrophage cells assessed as inhibition of IFN-beta mRNA level at 1.25 to 5 uM by RT-PCR analysis; type: functional, cell-based; conditions: dose 1.25-5 µM
Mus musculus [4] = assay: Antiinflammatory activity against LPS induced acute lung injury C57BL/6 mouse model assessed as reduction in pulmonary edema by measuring reduction of lung wet to dry ratio at 20 mg/kg,po administrated measured after 48 hrs; type: functional, organism-based
[5] = Half life in Sprague-Dawley rat at 1 mg/kg,iv administration measured upto 24 hrs by LC-MS/MS analysis; type: ADME, organism-based; conditions: in vivo
[6] = AUC (0 to infinity) in Sprague-Dawley rat at 1 mg/kg,iv administration measured upto 24 hrs by LC-MS/MS analysis; type: ADME, organism-based; conditions: in vivo
J774.A1 [7] = assay: Anti-inflammatory activity in LPS-induced mouse J774.A1 cells assessed as inhibition of TNF-alpha production by ELISA; type: functional, cell-based
J774.A1 [8] = assay: Inhibition of MAPK signalling pathway in LPS stimulated mouse J774.A1 cells assessed as downregulation of p38 phosphorylation by Western blotting analysis; type: cell-based
[9] = AUC (0 to t) in Sprague-Dawley rat at 20 mg/kg,po administration measured upto 24 hrs by LC-MS/MS analysis; type: ADME, organism-based; conditions: in vivo
[10] = target: TLR4-MyD88 (Mus musculus) (UniProt Q9QUK6+P22366); assay: Inhibition of MYD88/TLR4 protein-protein interaction in LPS-induced mouse J774.A1 cells at 20 uM incubated for 2 hrs by coimmunoprecipitation analysis; type: cell-based
Mus musculus [11] = assay: Antiinflammatory activity against LPS induced acute lung injury C57BL/6 mouse model assessed as reduction in of leukocytes in alveolar region at 20 mg/kg,po administrated with compound for 30 mins followed by LPS treatment and measured after 6 hrs by immunohistochemical staining based analysis; type: functional, organism-based
Mus musculus [12] = assay: Antiinflammatory activity against LPS induced acute lung injury C57BL/6 mouse model assessed as reduction in IL-6 level in BALF at 20 mg/kg,po administrated with compound for 30 mins followed by LPS treatment and measured after 6 hrs by ELISA; type: functional, organism-based; conditions: time 6.5 hrs
Mus musculus [13] = assay: Antiinflammatory activity in cecal ligation and puncture induced sepsis C57BL/6 mouse model assessed as reduction in TNF-alpha mRNA level in lung at 20 mg/kg,po administrated with compound for 6 hrs followed by CLP induction and measured after 12 hrs by RT-PCR analysis; type: functional, organism-based; conditions: time 18.0 hrs
[14] = target: Myeloid differentiation primary response protein MyD88 (Homo sapiens, UniProt Q99836); assay: Binding affinity to CM5 sensor chip immobilized human MyD88 TIR domain assessed as thermal stabilization at 10 uM incubated for 4 hrs by cellular thermal shift assay
Mus musculus [15] = assay: Antiinflammatory activity in cecal ligation and puncture induced sepsis C57BL/6 mouse model assessed as reduction in TNF-alpha level in serum at 20 mg/kg,po administrated with compound for 6 hrs followed by CLP induction and measured after 12 hrs by ELISA; type: functional, organism-based; conditions: time 18.0 hrs
J774.A1 [16] = assay: Inhibition of MAPK signalling pathway in LPS stimulated mouse J774.A1 cells assessed as downregulation of IRAK4 phosphorylation by Western blotting analysis; type: cell-based
[17] = Stability of compound in enzyme free simulated gastric fluid measured upto 12 hrs; type: physicochemical; conditions: simulated gi fluid
Mus musculus [18] = assay: Antiinflammatory activity against LPS induced acute lung injury C57BL/6 mouse model assessed as reduction in TNF-alpha level in BALF at 20 mg/kg,po administrated with compound for 30 mins followed by LPS treatment and measured after 6 hrs by ELISA; type: functional, organism-based; conditions: time 6.5 hrs
Mus musculus [19] = assay: Antiinflammatory activity in cecal ligation and puncture induced sepsis C57BL/6 mouse model assessed as reduction in neutrophil infiltration in lung at 20 mg/kg,po administrated with compound for 6 hrs followed by CLP induction and measured after 12 hrs by immunohistochemical staining based analysis; type: functional, organism-based; conditions: time 18.0 hrs
Mus musculus [20] = assay: Antiinflammatory activity against LPS induced acute lung injury C57BL/6 mouse model assessed as reduction in TNF-alpha level in serum at 20 mg/kg,po administrated with compound for 30 mins followed by LPS treatment and measured after 6 hrs by ELISA; type: functional, organism-based; conditions: time 6.5 hrs
[21] = target: Toll-like receptor 4/Ly96 (Mus musculus) (UniProt Q9QUK6+Q9JHF9); assay: Inhibition of MD2/TLR4 protein-protein interaction in LPS-induced mouse J774.A1 cells at 20 uM incubated for 2 hrs by coimmunoprecipitation analysis; type: cell-based

Sequence of Myeloid differentiation primary response protein MyD88 (Q99836 whole entry, the tested form may be a part): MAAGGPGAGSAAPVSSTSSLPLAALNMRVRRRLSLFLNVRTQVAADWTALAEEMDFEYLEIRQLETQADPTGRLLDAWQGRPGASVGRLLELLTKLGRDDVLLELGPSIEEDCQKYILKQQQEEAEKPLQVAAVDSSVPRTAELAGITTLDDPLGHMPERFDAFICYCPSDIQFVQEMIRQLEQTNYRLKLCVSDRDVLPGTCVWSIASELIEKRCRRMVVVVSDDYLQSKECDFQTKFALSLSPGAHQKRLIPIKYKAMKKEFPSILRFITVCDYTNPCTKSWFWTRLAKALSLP
Sequence of TLR4-MyD88 (Mus musculus) (P22366 whole entry, looked up): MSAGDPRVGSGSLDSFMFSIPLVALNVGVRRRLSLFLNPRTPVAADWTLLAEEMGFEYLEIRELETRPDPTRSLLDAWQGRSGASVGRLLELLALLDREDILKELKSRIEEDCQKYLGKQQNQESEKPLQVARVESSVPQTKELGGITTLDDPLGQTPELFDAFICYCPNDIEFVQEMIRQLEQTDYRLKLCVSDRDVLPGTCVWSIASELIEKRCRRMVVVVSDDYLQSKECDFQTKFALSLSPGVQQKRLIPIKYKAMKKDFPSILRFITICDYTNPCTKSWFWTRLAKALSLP
Sequence of TLR4-MyD88 (Mus musculus) (Q9QUK6 whole entry, looked up): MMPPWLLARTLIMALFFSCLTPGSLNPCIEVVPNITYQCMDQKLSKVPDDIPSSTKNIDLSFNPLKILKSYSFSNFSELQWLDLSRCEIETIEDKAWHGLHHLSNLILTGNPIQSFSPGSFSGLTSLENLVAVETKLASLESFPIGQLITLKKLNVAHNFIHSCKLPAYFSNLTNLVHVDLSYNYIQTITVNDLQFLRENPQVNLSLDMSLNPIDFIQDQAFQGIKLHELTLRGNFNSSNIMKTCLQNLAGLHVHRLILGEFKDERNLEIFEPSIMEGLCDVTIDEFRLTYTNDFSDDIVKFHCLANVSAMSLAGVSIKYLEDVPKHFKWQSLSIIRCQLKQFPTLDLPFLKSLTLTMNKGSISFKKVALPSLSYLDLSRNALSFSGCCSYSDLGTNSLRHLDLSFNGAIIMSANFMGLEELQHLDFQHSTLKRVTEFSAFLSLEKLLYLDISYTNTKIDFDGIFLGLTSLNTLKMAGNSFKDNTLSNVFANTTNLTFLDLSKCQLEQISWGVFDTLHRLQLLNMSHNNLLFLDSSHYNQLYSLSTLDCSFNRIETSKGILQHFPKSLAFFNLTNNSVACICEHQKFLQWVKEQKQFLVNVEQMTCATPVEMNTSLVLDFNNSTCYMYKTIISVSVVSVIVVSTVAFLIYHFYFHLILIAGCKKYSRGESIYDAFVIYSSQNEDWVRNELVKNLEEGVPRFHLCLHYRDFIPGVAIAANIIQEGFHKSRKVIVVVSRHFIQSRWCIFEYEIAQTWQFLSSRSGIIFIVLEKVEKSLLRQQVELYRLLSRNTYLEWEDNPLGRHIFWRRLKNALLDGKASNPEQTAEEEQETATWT

In the case of O[C@H](COc1ccc(Br)cc1)CN1CCN(Cc2cc3ccccc3[nH]2)CC1, the bioavailability [1] is reported as 20.7%, the Activity (Mus musculus [2]) is reported as “Active” and the Drug uptake [3] is reported as “Active”. For the same molecule, the Activity (Peritoneal macrophage) was “inactive”, the Activity (Mus musculus [4]) was “Active” and the half-life [5] was 1.39 h. The AUC(0-inf) [6] was 698 ng·h/mL, the IC50 (J774.A1 [7]) was 3.28 µM and the inhibition (J774.A1 [8]) was “Active”. The AUC(0-t) at 24 h [9] was 2860 ng·h/mL, the inhibition [10] was “Active” and the Activity (Mus musculus [11]) was “Active”. The Activity (Mus musculus [12]) was “Active”, the Activity (Mus musculus [13]) was “Active” and the Activity [14] was “Active”. For the same molecule, the Activity (Mus musculus [15]) was “Active”, the inhibition (J774.A1 [16]) was “Active” and the Stability [17] was “Stable”. For the same molecule, the Activity (Mus musculus [18]) was “Active”, the Activity (Mus musculus [19]) was “Active” and the Activity (Mus musculus [20]) was “Active”. The inhibition [21] was “inactive”.
